From patent US5338684A, “Stable aqueous FK506 standards” (Abbott Laboratories, priority 1993, dated 1994)

How the values were obtained:
[1] = format: physicochemical, horse
Procedure: (§1) This example illustrates the suitability of non-human blood sources for a composition of the invention. In this example both sheep blood (non-lysed as in Example 1 above and containing the anti-coagulant citrate) and horse blood (lysed by freeze-thaw cycles as in Example 2 above and containing the anti-coagulant EDTA) were utilized. FK506 standards were made in each matrix and stability was evaluated at 37 degrees Celsius as described above.

[2] = format: physicochemical, human
Procedure: This example illustrates the utilization of blood cell fragments according to the invention to stabilize FK506 in an aqueous matrix. Human blood cells were lysed by sonication or by repetitive freeze-thaw cycles respectively. Lysis was judged complete by the absence of blood cells under microscopic examination. Except for the utilization of lysed human blood cells instead of whole blood cells, the FK506 standards were prepared in the same manner as in Example 1 above.

[3] = tested on: monoclonal antibody directed against FK506 (Fujisawa clone #1-60-46); assay: Microparticle capture enzyme immunoassay (MEIA) for FK506, competitive with FK506-alkaline phosphatase conjugate; format: binding; conditions: pH 6.0
Procedure: In general an analyte such as FK506 is determined in an MEIA by quantifying the rate of fluorescence development when a fluorogenic substrate is converted by the action of an enzyme-labeled conjugate. MEIAs as run on the IMx® analyzer generally utilize a reagent pack containing microparticle reagent, an alkaline phosphatase conjugate, fluorogenic substrate and, optionally, a diluent buffer specific for the FK506 assay. Submicron microparticles coated with a capture molecule specific for FK506 being measured are used as the solid phase. […] The effective surface area of these polystyrene latex microparticles, which number in the millions, is several-fold greater than that of a 1/4 inch diameter polystyrene bead commonly used in other commercial immunoassays. Because of this large surface area and the very small diffusion distance between analyte and the capture molecules on the surface of the microparticles, the capture phase of the MEIA typically reaches equilibrium within several minutes, allowing excellent throughput.
Unlike homogeneous fluorescent polarization immunoassays, the heterogeneous MEIA requires a separation step. After incubation of the microparticles with specimen, the microparticles are separated from the reaction mixture by transferring it to an inert glass fiber matrix in the MEIA reaction cell. This glass fiber surface provides a precisely located mechanical support for the microparticles during the subsequent optical read phase of the assay. The microparticles and bound analyte adhere strongly to the glass fibers, while the remaining specimen components are washed through the pores of the matrix to an underlying absorbent blotter. Detection of the immune complex on the glass fiber matrix is accomplished using an alkaline phosphatase-labeled conjugate. Conjugate is either incubated with the specimen and microparticles in a typical one step IMx® MEIA or applied to the matrix after the initial wash step. It is contemplated that an MEIA for FK506 run on the IMx® analyzer can be configured either in a "sandwich" or competitive assay format. […]
In either configuration, the specifically bound alkaline phosphatase on the microparticles is detected by addition of a fluorogenic substrate, typically 4-methylumbelliferyl phosphate (4-MUP), to the matrix. […] The liberated 4-MU is detected by the IMx® MEIA optics assembly, a front surface fluorometer designed to detect fluorescence of low concentrations of 4-MU without interference by fluorescence of 4-MUP at 367 nanometers (nm). A system of lenses and optical filters focuses filtered light (365 nm wavelength) from a mercury arc lamp onto the surface of the matrix and focuses emitted fluorescence from 4-MU (448 nm wavelength) onto a photomultiplier tube. About 5% of the excitation light is detected by a photodiode, allowing normalization of the fluorescence data and generation of a control signal used by the lamp power supply to maintain the intensity of the excitation light within 5% over the useful life of the lamp. The instrument then uses linear regression analysis to convert the data from 8 successive determinations of 4-MU fluorescence to a rate, which rate is proportional to the concentration of alkaline phosphatase conjugate specifically bound to the microparticles, from which the concentration of FK506 in the sample can be determined. […]

[4] = format: physicochemical, human; remark: listed apart in the source
Description: This example illustrates the utilization of human packed red blood cells (with EDTA as anticoagulant) and saline in an aqueous, FK506-containing composition of the invention. It also illustrates the enhanced stability of FK506 in this composition of the invention compared to the stability of FK506 in comparative serum and plasma compositions.
Human packed red blood cells (with sufficient EDTA added to prevent coagulation) were mixed in equal parts by volume with saline (0.9 percent by weight sodium chloride solution), human plasma or human serum. Three freeze-thaw cycles were done on each matrix combination to lyse the cells. The pH on each matrix was adjusted to pH 6.0 with 3 Molar (M) citric acid. FK506 standards were made in each matrix and stability at […] was evaluated as described above.

[5] = format: physicochemical, human; remark: listed apart in the source
Procedure: This example illustrates the preparation of an aqueous composition of the invention utilizing whole human blood containing the anticoagulant, ethylenediamine tetraacetic acid (EDTA). It also illustrates a comparison of the stability of FK506 in the aqueous composition of the invention with the stability of FK506 in a synthetic blood matrix (prepared by adding hemoglobin to human serum) and with the stability of FK506 in plasma and serum
A synthetic blood matrix was prepared by adding hemoglobin (10 grams/deciliter) to human serum. A stock standard of FK506 in methanol (10 micrograms FK506/ml) was spiked into this synthetic matrix to provide two initial concentrations of 32.2 nanograms FK506/ml (ng/ml)(high) and 7.5 ng/ml (low). A composition of the invention was prepared by adding the stock standard of FK506 in methanol (10 micrograms FK506/ml) into human whole blood (containing sufficient EDTA to prevent coagulation ) to provide two initial concentrations of 47.1 ng/ml (high) and 9.3 ng/ml (low). The stability of these two different matrices was evaluated by placing the four different standards at 37 degrees Celsius and determining the concentration of FK506 present as a function of time.

[6] = format: physicochemical, sheep
Procedure: as §1

[7] = format: physicochemical
Description: The stability of the composition can be determined by measuring the decrease in the measured amount of FK506 in the aqueous composition with time. […] In a composition of the invention useful as a standard for a diagnostic assay, generally the amount of FK506 initially present in the aqueous composition maintained at a temperature of 37 degrees Celsius will decrease over a period of 7 days by less than 20 percent by weight, and typically by less than 5 percent by weight

[8] = format: physicochemical; remark: listed apart in the source
Procedure: FK506 was spiked into plasma and serum and the stability at 37 degrees Celsius was evaluated as for human blood and the synthetic matrix above. The plasma contained sufficient EDTA as anti-coagulant to prevent coagulation.
Comparative plasma and serum matrices were prepared by adding a stock standard of FK506 in methanol (10 micrograms FK506/ml) to the plasma and serum matrices to provide two initial concentrations of 41.8 ng/ml (high) and 18.4 ng/ml (low) for the plasma and two initial concentrations of 44.9 ng/ml (high) and 22.4 ng/ml (low) for the serum. As for the human blood and synthetic matrix above, the stability of these two different matrices was evaluated by placing the four different standards at 37 degrees Celsius and determining the concentration of FK506 present as a function of time.

[9] = format: physicochemical; remark: listed apart in the source
Description: Whole blood has the undesirable characteristic of thickening at elevated temperatures. Thickened blood can be difficult or impossible to pipet which can make a blood matrix completely unsuitable as a standard for a diagnostic assay.
Whole blood (plus sufficient EDTA to prevent coagulation) was lysed by freeze-thaw cycles and diluted with saline so as to be at final saline concentrations of 10, 20 and 30 percent by volume. FK506 in methanol was spiked into the matrix to make standards and the stability was evaluated at 37 degrees Celsius as described above.

[10] = aqueous blood cell composition, 168 h

SMILES: C=CC[C@@H]1/C=C(\C)C[C@H](C)C[C@H](OC)[C@H]2O[C@@](O)(C(=O)C(=O)N3CCCC[C@H]3C(=O)O[C@H](/C(C)=C/[C@@H]3CC[C@@H](O)[C@H](OC)C3)[C@H](C)[C@@H](O)CC1=O)[C@H](C)C[C@@H]2OC [FK506]
- stability in horse blood [1]: excellent stability
- stability in lysed blood [2]: more stable at 45 degrees Celsius than FK506 standards in serum, plasma or synthetic blood at 37 degrees Celsius
- Fluorescent Rate ([3]; 10 ng/ml FK506 in lysed human whole blood): 288
- Fluorescent Rate ([3]; 20 ng/ml FK506 in lysed human whole blood): 197
- Fluorescent Rate ([3]; 30 ng/ml FK506 in lysed human whole blood): 150
- Fluorescent Rate ([3]; 50 ng/ml FK506 in lysed human whole blood): 111
- Fluorescent Rate ([3]; 80 ng/ml FK506 in lysed human whole blood): 79
- stability in packed red cell matrices [4]: more stable in any of them relative to serum, plasma or synthetic blood matrices
- most stable matrix ([4]; saline vs plasma or serum dilution, 45 degrees Celsius): the most stable matrix was blood diluted with saline
- stability in blood vs synthetic matrix [5]: much more stable in blood than in the synthetic matrix
- stability in sheep blood [6]: excellent stability
- stability at acidic pH [7]: enhanced somewhat at acidic pH
- stability in aqueous matrices [7]: unstable
- decrease of the amount of FK506 initially present, generally [7, 10]: less than 20 percent by weight
- decrease of the amount of FK506 initially present, typically [7, 10]: less than 5 percent by weight
- stability in plasma [8]: very unstable in plasma and serum
- stability in serum [8]: very unstable in plasma and serum
- stability in saline-diluted lysed blood [9]: good stability
